# Data published in patent US11840686B2, “Modulation of prekallikrein (PKK) expression” (Ionis Pharmaceuticals, Inc., priority 2013, dated 2023).
# Strand notation (5' to 3'): a small letter for the sugar, then the base; units joined by * are phosphorothioate-linked, units joined directly phosphodiester-linked; [ ] holds rarer units or linkages, { } end groups; capitals alone tell only the bases. e = 2'-O-(2-methoxyethyl) (MOE); k = constrained ethyl (cEt); [5mC] = 5-methylcytosine; d = 2'-deoxy (DNA)
# Tested on: human PKK mRNA
# Test: Antisense inhibition of human PKK mRNA in HepaRG cells, 1,000 nM, MOE/deoxy/cEt oligonucleotides (Example 3)
# Type: cell-based
# Settings: HepaRG cells, 1,000 nM antisense oligonucleotide, Table 29
# How it was run: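 Readout is percent PKK mRNA reduction against untreated controls, by real-time PCR (RTS3454) adjusted for total RNA via RIBOGREEN. Oligonucleotides, phosphorothioate gapmers of 16 nucleosides with cEt, MOE and deoxy sugars, were delivered at 1,000 nM by electroporation to 20,000 HepaRG cells/well for roughly 24 h.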
row,Substance,% inhibition
1,548549 (antisense eT*eG*kT*dG*d[5mC]*dA*dA*dT*d[5mC]*dA*dG*dG*dT*kG*kG*eA) [compound 548549],56%
2,548551 (antisense e[5mC]*eG*kG*d[5mC]*d[5mC]*dA*dA*dT*dG*dG*dG*dA*dA*kA*kG*eG) [compound 548551],25%

# Same assay, conditions: HepaRG cells, electroporation with 1,000 nM antisense oligonucleotide, approx. 24 hours, PKK mRNA by RT-PCR (RTS3454), relative to untreated control cells; Table 25 experiment
row,Substance,% inhibition
1,548211 (eA*e[5mC]*k[5mC]*dA*dA*d[5mC]*dA*dA*dT*d[5mC]*dT*d[5mC]*dT*kG*kG*eT; antisense) [compound 548211],51%
2,548156 (eT*e[5mC]*kA*dG*d[5mC]*d[5mC]*d[5mC]*d[5mC]*dT*dG*dG*dT*dT*kA*k[5mC]*eG; antisense) [compound 548156],0%
3,548161 (e[5mC]*eT*k[5mC]*dG*d[5mC]*dA*dT*dT*dG*dT*d[5mC]*dA*dG*k[5mC]*k[5mC]*e[5mC]; antisense) [compound 548161],59%
4,548151 (eG*eG*kG*d[5mC]*dT*dT*d[5mC]*dA*dG*d[5mC]*d[5mC]*dA*dG*kA*k[5mC]*eA; antisense) [compound 548151],35%
5,548152 (e[5mC]*eG*kG*dG*d[5mC]*dT*dT*d[5mC]*dA*dG*d[5mC]*d[5mC]*dA*kG*kA*e[5mC]; antisense) [compound 548152],32%
6,548224 (e[5mC]*e[5mC]*kA*dT*dA*dG*dA*d[5mC]*d[5mC]*d[5mC]*dA*dG*dA*kA*kT*e[5mC]; antisense) [compound 548224],20%

# Same assay, conditions: HepaRG cells, electroporation with 1,000 nM antisense oligonucleotide, approx. 24 hours, PKK mRNA by RT-PCR (RTS3454), relative to untreated control cells; Table 26 experiment
row,Substance,% inhibition
1,548279 (antisense e[5mC]*eA*k[5mC]*d[5mC]*dT*dA*dG*dA*dA*d[5mC]*dT*dA*dT*k[5mC]*k[5mC]*eA) [compound 548279],39%
2,548269 (antisense eA*eG*k[5mC]*dA*d[5mC]*dA*d[5mC]*dA*dA*dT*dT*dA*d[5mC]*kT*kG*eG) [compound 548269],62%
3,548272 (antisense eG*eG*kT*dG*d[5mC]*d[5mC]*dA*d[5mC]*dT*dT*dG*d[5mC]*dT*kT*kG*eG) [compound 548272],54%
4,548266 (antisense eT*eT*kG*dG*d[5mC]*d[5mC]*dA*dA*d[5mC]*dT*d[5mC]*dT*dG*kT*kG*eG) [compound 548266],44%

# Same assay, conditions: HepaRG cells, electroporation with 1,000 nM antisense oligonucleotide, approximately 24 hours, primer probe set RTS3454, relative to untreated control cells; experiment of Table 23
row,Substance,% inhibition
1,547949 (eG*eT*kG*dT*dT*dT*dT*d[5mC]*dT*dT*dG*dA*dG*kG*kA*eG; antisense) [compound 547949],6%
2,547954 (eT*eA*kA*dA*dA*dG*dG*d[5mC]*dT*dA*dT*dA*dT*k[5mC]*k[5mC]*eA; antisense) [compound 547954],36%
3,547991 (antisense eT*eA*k[5mC]*dA*dG*dT*d[5mC]*dT*dT*d[5mC]*dT*dG*dG*kG*kA*eG) [compound 547991],0%

# Same assay, conditions: HepaRG cells, electroporation with 1,000 nM antisense oligonucleotide, approximately 24 hours, primer probe set RTS3454, relative to untreated control cells; experiment of Table 24
row,Substance,% inhibition
1,548002 (antisense eA*eA*k[5mC]*d[5mC]*dA*dG*dA*dG*d[5mC]*dT*d[5mC]*d[5mC]*d[5mC]*kT*kT*eG) [compound 548002],56%
2,548060 (e[5mC]*eT*kT*dG*dT*dG*dT*d[5mC]*dA*d[5mC]*d[5mC]*dT*dT*kT*kG*eG; antisense) [compound 548060],76%
3,548025 (eT*eG*kA*dG*d[5mC]*dT*dG*dT*d[5mC]*dA*dG*d[5mC]*dT*kT*k[5mC]*eA; antisense) [compound 548025],66%
4,548031 (eG*eA*kT*dG*d[5mC]*dG*d[5mC]*d[5mC]*dA*dA*dA*d[5mC]*dA*kT*k[5mC]*e[5mC]; antisense) [compound 548031],73%

# Same assay, conditions: PKK mRNA, HepaRG cells, 1,000 nM antisense oligonucleotide; Table 31
row,Substance,% inhibition
1,548651 (antisense eA*eG*kT*d[5mC]*dT*d[5mC]*dT*dT*dT*d[5mC]*d[5mC]*dT*dA*k[5mC]*k[5mC]*e[5mC]) [compound 548651],61%
2,548638 (antisense e[5mC]*e[5mC]*kT*d[5mC]*dA*dT*dT*dG*d[5mC]*dT*d[5mC]*d[5mC]*dA*k[5mC]*kT*eA) [compound 548638],26%
3,548673 (antisense eG*eA*k[5mC]*d[5mC]*dT*dT*dG*d[5mC]*dT*dT*d[5mC]*d[5mC]*dA*kT*kG*eT) [compound 548673],40%
4,548672 (antisense e[5mC]*e[5mC]*k[5mC]*d[5mC]*d[5mC]*d[5mC]*dA*dG*dA*dA*dA*dT*d[5mC]*k[5mC]*k[5mC]*eA) [compound 548672],40%
5,548640 (antisense eG*eA*kA*dT*dG*dT*dT*dG*d[5mC]*dT*dG*dT*d[5mC]*k[5mC]*k[5mC]*eA) [compound 548640],32%
6,548676 (antisense eG*eT*kG*dA*dA*dT*d[5mC]*dA*dG*dA*dG*d[5mC]*dA*kG*kT*eG) [compound 548676],63%

# Same assay, conditions: Table 19; HepaRG cells, electroporation with 1,000 nM antisense oligonucleotide, approximately 24 hours; PKK mRNA by RT-PCR (RTS3454), relative to untreated control cells
row,Substance,% inhibition
1,548079 (e[5mC]*e[5mC]*kT*dT*d[5mC]*dT*dT*dT*dA*dT*dA*dG*d[5mC]*k[5mC]*kA*eG; antisense) [compound 548079],39%
2,548074 (e[5mC]*e[5mC]*kT*dT*dT*d[5mC]*dT*d[5mC]*d[5mC]*dT*dT*d[5mC]*dG*kA*kG*eA; antisense) [compound 548074],0%
3,548077 (eA*eT*kT*dT*dG*dT*dT*dA*d[5mC]*d[5mC]*dA*dA*dA*kG*kG*eA; antisense) [compound 548077],51%
4,548092 (antisense eT*eT*kG*d[5mC]*dA*dA*dA*d[5mC]*dT*dA*dA*dG*dG*kG*kA*e[5mC]) [compound 548092],30%

# Same assay, conditions: Table 20; HepaRG cells, electroporation with 1,000 nM antisense oligonucleotide, approximately 24 hours; PKK mRNA by RT-PCR (RTS3454), relative to untreated control cells
row,Substance,% inhibition
1,547858 (antisense e[5mC]*eT*k[5mC]*dT*d[5mC]*dA*dT*dA*dT*d[5mC]*dA*dA*d[5mC]*kT*k[5mC]*e[5mC]) [compound 547858],82%
2,547880 (eT*eT*k[5mC]*dA*dA*d[5mC]*dA*d[5mC]*dT*dG*d[5mC]*dT*dA*kA*k[5mC]*e[5mC]; antisense) [compound 547880],69%

# Same assay, conditions: Table 21 experiment; HepaRG cells, electroporation with 1,000 nM antisense oligonucleotide, approx. 24 hours; PKK mRNA by RT-PCR (RTS3454), relative to untreated control cells
row,Substance,% inhibition
1,547787 (antisense eA*eA*kG*dT*dT*dG*d[5mC]*dT*dT*dG*d[5mC]*dT*dT*kG*kA*eA) [compound 547787],22%
2,547841 (antisense e[5mC]*eA*k[5mC]*dA*dT*dT*dG*d[5mC]*dT*dT*d[5mC]*dA*dA*kG*kG*eA) [compound 547841],42%
3,547826 (eT*eT*k[5mC]*dG*dA*dT*dG*dT*dA*d[5mC]*dT*dT*dT*kT*kG*eG; antisense) [compound 547826],31%
4,547799 (eG*eA*kA*dG*d[5mC]*dT*dA*d[5mC]*dA*dT*d[5mC]*d[5mC]*d[5mC]*k[5mC]*kA*e[5mC]; antisense) [compound 547799],41%

# Same assay, conditions: Table 22 experiment; HepaRG cells, electroporation with 1,000 nM antisense oligonucleotide, approx. 24 hours; PKK mRNA by RT-PCR (RTS3454), relative to untreated control cells
row,Substance,% inhibition
1,547858 (antisense e[5mC]*eT*k[5mC]*dT*d[5mC]*dA*dT*dA*dT*d[5mC]*dA*dA*d[5mC]*kT*k[5mC]*e[5mC]) [compound 547858],76%
2,547880 (eT*eT*k[5mC]*dA*dA*d[5mC]*dA*d[5mC]*dT*dG*d[5mC]*dT*dA*kA*k[5mC]*e[5mC]; antisense) [compound 547880],59%

# Same assay, conditions: Table 27; HepaRG cells, 1,000 nM antisense oligonucleotide; human PKK mRNA
row,Substance,% inhibition
1,548328 (antisense eG*eG*kT*d[5mC]*d[5mC]*dT*dT*dG*dA*dA*d[5mC]*d[5mC]*d[5mC]*k[5mC]*kG*eT) [compound 548328],68%
2,548312 (eA*eT*kT*dT*dG*dG*d[5mC]*d[5mC]*d[5mC]*dT*dG*dA*dG*k[5mC]*k[5mC]*e[5mC]; antisense) [compound 548312],0%
3,548371 (e[5mC]*eG*kA*dT*dG*dA*dG*dT*dT*dG*dG*dG*d[5mC]*kA*kG*eG; antisense) [compound 548371],57%

# Same assay, conditions: Table 28; HepaRG cells, 1,000 nM antisense oligonucleotide; human PKK mRNA
row,Substance,% inhibition
1,548461 (e[5mC]*e[5mC]*kT*dA*dT*dA*dT*d[5mC]*dA*d[5mC]*dT*dG*dT*kA*kA*e[5mC]; antisense) [compound 548461],0%
2,548471 (eG*e[5mC]*kG*dG*dA*dA*dA*dA*d[5mC]*dT*dG*dG*d[5mC]*k[5mC]*kG*eT; antisense) [compound 548471],17%
3,548472 (e[5mC]*e[5mC]*k[5mC]*dA*dA*dT*dA*d[5mC]*dA*dG*dG*dG*d[5mC]*k[5mC]*kA*eG; antisense) [compound 548472],0%

# Same assay, conditions: Table 30; human PKK mRNA, HepaRG cells, 1,000 nM antisense oligonucleotide
row,Substance,% inhibition
1,548432 (antisense eA*e[5mC]*kT*dG*dT*dA*d[5mC]*d[5mC]*dT*dA*dT*dA*dA*k[5mC]*kT*e[5mC]) [compound 548432],43%
2,548412 (antisense eT*eA*kA*d[5mC]*dA*dG*dT*dA*dT*d[5mC]*dA*d[5mC]*dT*kG*kT*eA) [compound 548412],17%
3,548415 (antisense eA*eT*kA*dA*d[5mC]*dT*d[5mC]*dT*dA*dA*d[5mC]*dA*dG*kT*kA*eT) [compound 548415],0%
4,548427 (antisense e[5mC]*eT*kA*dT*dA*dA*d[5mC]*dA*dG*dT*dA*dT*d[5mC]*kA*k[5mC]*eT) [compound 548427],24%
5,548405 (e[5mC]*eG*kG*dA*d[5mC]*d[5mC]*dT*dT*d[5mC]*dA*dT*d[5mC]*dT*kT*k[5mC]*eA; antisense) [compound 548405],35%
6,548397 (eG*eG*kA*dG*d[5mC]*dA*dG*dT*dG*d[5mC]*dA*dG*dG*kT*kA*eA; antisense) [compound 548397],1%
